Experimental data reported in patent US4621076A, “Pharmaceutical composition useful for inhibiting platelet aggregation” (Meito Sangyo Kabushiki Kaisha, priority 1982, dated 1986).
Counter-ions that a name gives are not always drawn.

Legend:
[1] = test system: thrombin-induced platelet aggregation; assay: Inhibitory effect on thrombin-induced platelet aggregation in vitro, Table 2; format: cell-based, human (healthy person)
Procedure: Blood was drawn from the cubital vein of a healthy person with a care taken to avoid congestion. […] 0.1 ml of a solution of 5'-GMP sodium salt in each of the concentrations shown in Table 1 below was added to 0.7 ml of PRP, and then each of the various platelet aggregation inducing agents shown in Table 1 was added. Changes in absorbance were measured by an aggregometer (made by Evans Company), and the rate of platelet aggregation inhibition was calculated from the following equation.
The same experiment as in (1) above was carried out except that […] of thrombin was used as a platelet aggregation inducing agent.

[2] = test system: platelet aggregation; conditions: cited from earlier work
[3] = test system: thrombin-induced platelet aggregation; assay: Thrombin-induced platelet aggregation (inventors' test of 5'-GDP); format: cell-based; conditions: tests conducted by the present inventors
[4] = test system: 5'-ADP-induced platelet aggregation; conditions: at high concentrations; cited from earlier work
[5] = test system: platelet aggregation induced by arachidonic acid; assay: Inhibition of arachidonic acid-induced platelet aggregation in vitro (method of Born, human PRP, aggregometer); format: cell-based, human (healthy person); conditions: arachidonic acid 55.5 γ/ml, read-out: Rate of inhibition (%)
Procedure: (§1) (1) Inhibitory effect of GMP on platelet aggregation induced by various platelet aggregation inducing substances:
(§2) The inhibitory effect was measured by the method of Born (J. Physiol., vol. 168, p. 178, 1963).
(§3) Blood was drawn from the cubital vein of a healthy person with a care taken to avoid congestion. One part by volume of a 3.8% sodium citrate solution was added to 9 parts by volume of the blood, and the mixture was centrifuged at 1,000 rpm for 10 minutes at room temperature to obtain platelet-rich plasma (PRP). 0.1 ml of a solution of 5'-GMP sodium salt in each of the concentrations shown in Table 1 below was added to 0.7 ml of PRP, and then each of the various platelet aggregation inducing agents shown in Table 1 was added. Changes in absorbance were measured by an aggregometer (made by Evans Company), and the rate of platelet aggregation inhibition was calculated from the following equation.

[6] = test system: platelet aggregation induced by collagen; assay: Inhibition of collagen-induced platelet aggregation in vitro (method of Born, human PRP, aggregometer); format: cell-based, human (healthy person); conditions: collagen 5.5 γ/ml, read-out: Rate of inhibition (%)
Procedure: as §1, §2, §3

[7] = test system: platelet aggregation induced by 5'-ADP; assay: Inhibition of 5'-ADP-induced platelet aggregation in vitro (method of Born, human PRP, aggregometer); format: cell-based, human (healthy person); conditions: 5'-ADP 55.5 γ/ml, read-out: Rate of inhibition (%)
Procedure: as §1, §2, §3

[8] = test system: platelet aggregation induced by norepinephrine; assay: Inhibition of norepinephrine-induced platelet aggregation in vitro (method of Born, human PRP, aggregometer); format: cell-based, human (healthy person); conditions: norepinephrine 55.5 γ/ml, sample 1.00 mg/ml, read-out: Rate of inhibition (%)
Procedure: as §1, §2, §3

[9] = test system: platelet aggregation induced by thrombin; assay: Inhibition of thrombin-induced platelet aggregation in vitro, Table 1 (method of Born, human PRP, aggregometer); format: cell-based, human (healthy person)
Procedure: as §1, §2, §3

[10] = test system: platelet aggregation (thrombin-induced); assay: Duration of the platelet aggregation inhibiting effect in vivo in rabbits (thrombin added to PRP); conditions: rabbit
Procedure: (3) Inhibitory effect on platelet aggregation in vivo:
(1) Duration of the aggregation inhibiting effect.
(§4) 5'-GMP sodium salt was administered to rabbits intravenously in a dose of 50 mg/kg or orally in a dose of 1 g/kg. After a predetermined period of time (30 seconds to 4 minutes in the case of intravenous injection, and 1 to 5 hours in oral administration), blood was drawn from the animals. One part by volume of a 3.8% solution of sodium citrate was added to 9 parts by volume of the blood, and the mixture was centrifuged at 1,000 rpm at room temperature for 10 minutes to obtain platelet-rich plasma (PRP). 0.1 ml of a thrombin solution (0.75 u/ml) was added to 0.7 ml of PRP, and then changes in absorbance were measured by an aggregometer (made by Evans Company).

[11] = test system: platelet aggregation; assay: Relation between dose of GMP and aggregation inhibiting effect in rabbits in vivo; conditions: rabbit, one hour after administration
Procedure: as §4
(2) Relation between the dose of GMP and the aggregation inhibiting effect.
Using rabbits, the dose response of the platelet aggregation inhibiting activity of 5'-GMP (sodium salt) in vivo was examined. 5'-GMP (sodium salt) was orally administered to the rabbits, and blood was drawn from the animals one hour after the administration. PRP was prepared in the same way as in section (1) above. The degree of platelet aggregation inhibition was measured by an aggregometer.

[12] = test system: platelet aggregation (thrombin-induced); assay: Inhibitory effect on platelet aggregation in humans in vivo (thrombin added to PRP); parameters: species or system human (healthy persons); conditions: for Rate of platelet aggregation inhibition (%): five healthy persons, oral one gram
Procedure: (4) Inhibitory effect on platelet aggregation in humans in vivo:
One gram of 5'-GMP (sodium salt) was administered orally to each of five healthy persons, and blood was drawn from them after a predetermined period of time. One part by volume of a 3.8% aqueous solution of sodium citrate was added to 9 parts by volume of the blood, and the mixture was centrifuged at room temperature for 10 minutes at 1,000 rpm to obtain platelet-rich plasma (PRP). 0.1 ml of a thrombin solution (0.75 u/ml) was added to 0.7 ml of PRP, and changes in absorbance were measured by an aggregometer (made by Evans Company).

[13] = Acute toxicity in mice (Litchfield-Wilcoxon); parameters: species or system mouse (ddY-strain); conditions: mouse, in vivo, ddY mice, parentheses: 95% reliability limits
Procedure: The acute toxicity of the compound of formula (I) in accordance with this invention was examined.
The test compound (guanosine 5'-monophosphate sodium salt) was dissolved in physiological saline, and the solution was administered to ddY-strain mice (body weight 20 to 25 g) intravenously or orally.
The parenthesized figures show 95% reliability limits.

[14] = test system: platelet aggregation induced by various platelet aggregation inducing substances; assay: Inhibition of platelet aggregation induced by various platelet aggregation inducing substances; format: cell-based, human (healthy person); conditions: Table 1
Procedure: as §1, §2, §3

Nc1nc2c(ncn2[C@@H]2O[C@H](CO)[C@@H](OP(=O)(O)O)[C@H]2O)c(=O)[nH]1 [3'-GMP (sodium salt), Guanosine 3'-monophosphate]
inhibition at 2000 µg/mL ([1]; Homo sapiens, Platelet, thrombin 0.25 μ/ml, compound 2.0 mg/ml, read-out: Inhibition rate (%)): 87%
Inhibition rate (%) ([1]; thrombin 0.25 μ/ml, compound 2.0 mg/ml): 80%

Nc1ncnc2c1ncn2[C@@H]1O[C@H](COP(=O)(O)OP(=O)(O)O)[C@@H](O)[C@H]1O [5'-ADP, adenosine 5'-diphosphate]
action on platelet aggregation [2]: promoting platelet aggregation

Nc1ncnc2c1ncn2[C@@H]1O[C@H](COP(=O)(O)O)[C@@H](O)[C@H]1O [5'-AMP, adenosine 5'-monophosphate]
action on platelet aggregation [2]: weak action of inhibiting platelet aggregation

Nc1nc2c(ncn2[C@@H]2O[C@H](COP(=O)(O)OP(=O)(O)O)[C@@H](O)[C@H]2O)c(=O)[nH]1 [5'-GDP, guanosine 5'-diphosphate]
inhibitory action on thrombin-induced platelet aggregation [3]: no inhibitory action on thrombin-induced platelet aggregation
inhibitory action on 5'-ADP-induced platelet aggregation [4]: inhibitory action on 5'-ADP-induced platelet aggregation

Nc1nc2c(ncn2[C@@H]2O[C@H](COP(=O)([O-])[O-])[C@@H](O)[C@H]2O)c(=O)[nH]1.[Na+].[Na+] [5'-GMP (sodium salt), guanosine 5'-monophosphate sodium salt]
inhibition at 10 µg/mL (stock) ([5]; sample 0.01 mg/ml): 22%
inhibition at 1000 µg/mL (stock) ([5]; sample 1.00 mg/ml): 40%
inhibition at 100 µg/mL (stock) ([6]; sample 0.10 mg/ml): 10%
inhibition at 1000 µg/mL (stock) ([6]; sample 1.00 mg/ml): 10%
inhibition at 100 µg/mL (stock) ([7]; sample 0.10 mg/ml): 3%
inhibition at 1000 µg/mL (stock) ([7]; sample 1.00 mg/ml): 10%
inhibition at 1000 µg/mL (stock) [8]: 8%
inhibition at 100 µg/mL ([9]; Homo sapiens, Platelet, read-out: Rate of inhibition (%)): 66%
inhibition at 1000 µg/mL (stock) ([9]; Homo sapiens, Platelet, thrombin 0.5 μ/ml, sample 1.0 mg/ml, read-out: Rate of inhibition (%)): 80%
inhibition at 10000 µg/mL (stock) ([9]; Homo sapiens, Platelet, thrombin 0.5 μ/ml, sample 10.0 mg/ml, read-out: Rate of inhibition (%)): 89%
inhibition at 500 µg/mL ([1]; Homo sapiens, Platelet, read-out: Inhibition rate (%), thrombin 0.25 μ/ml, compound 0.5 mg/ml): 75%
inhibition at 1000 µg/mL ([1]; Homo sapiens, Platelet, thrombin 0.25 μ/ml, compound 1.0 mg/ml, read-out: Inhibition rate (%)): 81%
Rate of platelet aggregation inhibition (%) ([10]; iv 50 mg/kg, 30 seconds): 94%
Rate of platelet aggregation inhibition (%) ([10]; iv 50 mg/kg, 60 seconds): 93%
Rate of platelet aggregation inhibition (%) ([10]; iv 50 mg/kg, 90 seconds): 59%
Rate of platelet aggregation inhibition (%) ([10]; iv 50 mg/kg, 120 seconds): 60%
Rate of platelet aggregation inhibition (%) ([10]; iv 50 mg/kg, 180 seconds): 62%
Rate of platelet aggregation inhibition (%) ([10]; iv 50 mg/kg, 240 seconds): 27%
Rate of platelet aggregation inhibition (%) ([10]; oral 1 g/kg, 1 hour): 95%
Rate of platelet aggregation inhibition (%) ([10]; oral 1 g/kg, 2 hours): 95%
Rate of platelet aggregation inhibition (%) ([10]; oral 1 g/kg, 3 hours): 93%
Rate of platelet aggregation inhibition (%) ([10]; oral 1 g/kg, 4 hours): 93%
Rate of platelet aggregation inhibition (%) ([10]; oral 1 g/kg, 5 hours): 83%
Rate of platelet aggregation inhibition (%) ([11]; oral 0.5 g/kg): 38.8%
Rate of platelet aggregation inhibition (%) ([11]; oral 1.0 g/kg): 61.0%
Rate of platelet aggregation inhibition (%) ([11]; oral 1.5 g/kg): 75.2%
Rate of platelet aggregation inhibition (%) ([11]; oral 2.0 g/kg): 80.3%
Rate of platelet aggregation inhibition (%) ([11]; oral 3.0 g/kg): 100%
Rate of platelet aggregation inhibition (%) ([12]; 1.5 hours): 63%
Rate of platelet aggregation inhibition (%) ([12]; 3 hours): 75%
Rate of platelet aggregation inhibition (%) ([12]; 4.5 hours): 62%
LD50 at 72 h ([13]; iv): 3350 mg/kg
LD50 at 72 h ([13]; po): 14800 mg/kg

Nc1nc2c(ncn2[C@@H]2O[C@H](COP(=O)(O)O)[C@@H](O)[C@H]2O)c(=O)[nH]1 [5'-GMP, Guanosine 5'-monophosphate]
effect against thrombin-induced aggregation ([9]; Table 1): especially effective against thrombin-induced aggregation
duration of effect ([10]; oral administration): ≥ 5 h
inhibition of platelet aggregation ([10]; oral administration): marked inhibition of platelet aggregation
duration of effect ([12]; humans, oral administration): ≥ 4.5 h
inhibitory effect on aggregation inducing agents [14]: shows an inhibitory effect on all of the aggregation inducing agents tested
